In patent US10202343B2, “MIF modulators” (YALE UNIVERSITY, priority 2008, dated 2019):
Like-named read-outs stand apart in the source and are kept apart here.

What was measured:
[1] = target: T1, Human MIF (MIF tautomerase activity) (Homo sapiens, UniProt P14174); experiment: HPP tautomerase assay; assay type: biochemical; conditions: for IC50: read-out: HPP IC50
T1 construct: made in house
T1 sequence (P14174 2-115 limits assumed): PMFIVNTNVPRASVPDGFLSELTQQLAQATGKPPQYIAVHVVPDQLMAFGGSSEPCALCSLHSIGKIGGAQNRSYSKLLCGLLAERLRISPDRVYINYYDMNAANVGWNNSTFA
Method: The HPP assay used was adapted to the microtiter plate format. […] Dilutions of the enzyme were prepared in 50 mM sodium phosphate buffer, 1 mM EDTA, pH 6.5. HPP was obtained from Aldrich. A stock solution of 60 mM HPP in ethanol is prepared and kept for maximally 4 hours on ice. The working solution (600 μM) of the substrate was prepared by diluting an aliquot of the stock solution with 50 mM sodium phosphate buffer, 1 mM EDTA, pH 6.5. […] Inhibitor and enzyme solutions were pipetted manually using an Eppendorf 12-channel pipette. Addition of substrate to start the reaction was performed with an Igel 96 pipetting station (OpalJena, Jena, Germany), which allows simultaneous addition of fluid to all 96 wells of the plates. Optical density (OD) was determined using a SPECTRAmax 250 reader (Molecular Devices). The reader was operated with the SoftmaxPro 2.6.1 software. Assay: Three wells of the microtiter plates were filled with buffer only, to allow for blanking. […] The last step was performed using the 96-channel pipetting device. The plate was then immediately (i.e. within a few seconds) transferred manually to the SPECTRAmax 250 reader and the optical density was determined (310 nm). From the data obtained, IC50 values were calculated using Excel® and XLfit® software.

[2] = target: T2, MIF-CD74 Binding (biotin-labeled recombinant human MIF, recombinant human MIF receptor CD74 ectodomain) (Homo sapiens, UniProt P14174); experiment: MIF-CD74 binding (capture) assay; design: concentration of C74 % MaxInhib (number after @): unit not given here; conditions: for % Bound: Table 19; for CD74 % MaxInhib / C74 % MaxInhib: number before @
T2 sequence (P14174 2-115 limits assumed): T1 sequence (P14174 2-115 limits assumed)

[3] = Table 19, data cell c5, read-out: CD74 IC50
[4] = Table 13, data cell c5, number before @

For COC(=O)CC1CC(c2ccc(O)cc2)=NO1 (stereo not drawn) [ISO-1, reference compound], which “activity in the HPP tautomerase assay” value [1] is on record?
The value was “inactive”.

And the “activity in the capture assay” value [2]?
The value was “inactive”.

With Oc1ccc(-c2cn(Cc3ccccc3)nn2)cc1 [MIF-002] as the compound, how does the “% Bound” value [2] read?
The value was 96%.

And the IC50 [2, 3]?
The IC50 was 6000 µM.

Oc1ccc(-n2cc(Cc3ccccc3)nn2)cc1 [MIF-003] was tested. Which IC50 ([2]; Table 18, read-out: CD74 IC50) did it give?
The IC50 was 3.5 µM.

How did the “% Bound” value [2] turn out when COc1ccc(Cn2cc(-c3ccc(O)cc3)nn2)cc1 [MIF-004] was run?
Its value is 94%.

COc1cccc(Cn2cc(-c3ccc(O)cc3)nn2)c1 [MIF-005] was tested. Which “% Bound” value [2] did it give?
Its value is 67%.

What about the IC50 [2, 3] of the same compound?
Its IC50 is 100 µM.

Oc1ccc(-c2cn(-c3cccnc3)nn2)cc1 [MIF-007] was tested. Which IC50 ([1]; Table 20) did it give?
The IC50 was 970 µM.

How did the IC50 ([1]; Table 20) turn out when Oc1ccc(-c2cn(-c3cncc4ccccc34)nn2)cc1 [MIF-008] was run?
The IC50 was 32 µM.

Which “HPP IC50” value ([1]; Table 21) does the source give for Oc1ccc(-n2cc(-c3cncc4ccccc34)nn2)cc1 [MIF-021] here?
The value was “agonist”.

And the IC50 ([2]; Table 21, column beside HPP IC50)?
The IC50 was “Agonist”.

How did the “% Bound” value [2] turn out when Cc1cccc(Cn2cc(-c3ccc(O)cc3)nn2)c1 [MIF-031] was run?
The value was 100%.

Cc1ccccc1Cn1cc(-c2ccc(O)cc2)nn1 [MIF-032] was tested. Which “% Bound” value [2] did it give?
Its value is 100%.

For COc1ccccc1Cn1cc(-c2ccc(O)cc2)nn1 [MIF-033], which “HPP IC50” value ([1]; Table 19, data cell c6) is on record?
The value was “agonist”.

What about the “CD74 IC50” value ([2]; Table 19, data cell c5) of the same compound?
Its value is “agonist”.

With COc1cccc(Cn2cc(-c3ccc(O)cc3)nn2)c1OC [MIF-034] as the compound, how does the IC50 ([1]; Table 19, data cell c6) read?
The IC50 was 0.5 to 1 µM.

And the IC50 [2, 3]?
The IC50 was 1.2 µM.

Oc1ccc(-c2cn(Cc3ccccn3)nn2)cc1 [MIF-035] was tested. Which IC50 ([2]; Table 20, read-out: CD74 IC50) did it give?
Its IC50 is 300 µM.

What does the source list for COC(=O)c1cccc(Cn2cc(-c3ccc(O)cc3)nn2)c1 [MIF-036]?
IC50 ([1]; Table 19, data cell c6): 2.5 µM; IC50 [2, 3]: 1.2 µM

For O=C(O)c1cccc(Cn2cc(-c3ccc(O)cc3)nn2)c1 [MIF-037], which “% Bound” value [2] is on record?
Its value is 70-90%.

For Oc1ccc2c(c1)oc1ccccc12 [MIF-039], which IC50 ([2]; Table 17, read-out: CD74 IC50) is on record?
Its IC50 is 900 µM.

How did the “HPP Max Inhib” value ([1]; Table 5) turn out when NC(=O)c1nc2ccccc2n1Cc1ccccc1 [MIF-062] was run?
The value was 16%.

What about the “concentration of CD74 % MaxInhib (number after @)” value (shortened to “concentration of CD74 % MaxInhib”) ([2]; Table 5) of the same compound?
The value was 1.87 µM.

And the “CD74 % MaxInhib” value ([2]; Table 5)?
The value was 25%.

CN(C)C(=O)c1nc2ccccc2n1Cc1ccccc1 [MIF-063] was tested. Which “HPP Max Inhib” value ([1]; Table 5) did it give?
The value was 0%.

And the “concentration of CD74 % MaxInhib” value ([2]; Table 5)?
The value was 1.87 µM.

And the “CD74 % MaxInhib” value ([2]; Table 5)?
Its value is 27%.

For CNC(=O)c1nc2ccccc2n1Cc1ccccc1 [MIF-065], which “HPP Max Inhib” value ([1]; Table 5) is on record?
Its value is 13%.

What about the “concentration of CD74 % MaxInhib” value ([2]; Table 5) of the same compound?
Its value is 1.87 µM.

And the “CD74 % MaxInhib” value ([2]; Table 5)?
Its value is 16%.

With COCCc1nc2ccccc2n1Cc1ccccc1 [MIF-066] as the compound, how does the “HPP Max Inhib” value ([1]; Table 5) read?
The value was 18%.

And the “concentration of CD74 % MaxInhib” value ([2]; Table 5)?
Its value is 1.87 µM.

And the “CD74 % MaxInhib” value ([2]; Table 5)?
The value was 25%.

How did the IC50 ([1]; Table 18) turn out when Oc1ccc(-n2cc(Cc3ccccc3)nn2)cc1F [MIF-069] was run?
The IC50 was 760 µM.

What about the “concentration of C74 % MaxInhib (number after @)” value ([2]; Table 18) of the same compound?
Its value is 0.0078.

What about the “C74 % MaxInhib” value ([2]; Table 18) of the same compound?
Its value is 14%.

Which results are given for COc1ccccc1Cc1cn(-c2ccc(O)cc2)nn1 [MIF-070]?
concentration of HPP Max Inhib (number after @) ([1]; Table 18): 1000; HPP Max Inhib ([1]; Table 18, number before @): 35%; concentration of C74 % MaxInhib (number after @) ([2]; Table 18): 0.0078; C74 % MaxInhib ([2]; Table 18): 14%

Which IC50 ([1]; Table 18) does the source give for Oc1ccc(-n2cc(Cc3ccccc3O)nn2)cc1 [MIF-071] here?
The IC50 was 1000 µM.

And the “concentration of C74 % MaxInhib (number after @)” value ([2]; Table 18)?
The value was 0.24.

And the “C74 % MaxInhib” value ([2]; Table 18)?
The value was 9%.

For O=C(c1cc2ccccc2o1)c1cc2cc(O)ccc2o1 [MIF-072], which “concentration of HPP Max Inhib (number after @)” value ([1]; Table 13) is on record?
Its value is 1000 µM.

What about the “HPP Max Inhib” value [1, 4] of the same compound?
Its value is 30%.

What about the “concentration of CD74 % MaxInhib” value ([2]; Table 13) of the same compound?
Its value is 0.24 µM.

What about the “CD74 % MaxInhib” value ([2]; Table 13) of the same compound?
The value was 9%.

Which results are given for Cc1ccc2oc(C(=O)c3cc4ccccc4o3)cc2c1 [MIF-078]?
concentration of HPP Max Inhib (number after @) ([1]; Table 13): 700 µM; HPP Max Inhib [1, 4]: 47%

With Cc1ccc2cc(C(=O)N3CCc4ccccc43)oc2c1 [MIF-082] as the compound, how does the “concentration of CD74 % MaxInhib” value ([2]; Table 14) read?
Its value is 0.24 µM.

What about the “CD74 % MaxInhib” value ([2]; Table 14) of the same compound?
Its value is 19%.

COc1cccc(Cc2cn(-c3ccc(O)cc3)nn2)c1OC [MIF-084] was tested. Which IC50 ([1]; Table 18) did it give?
Its IC50 is 530 µM.

How did the IC50 ([1]; Table 6, data cell c7) turn out when O=Cc1cccc(-n2sc3cc(F)ccc3c2=O)c1 [MIF-135] was run?
The IC50 was 6 µM.

For COCc1cccc(-n2sc3cc(F)ccc3c2=O)c1 [MIF-136], which IC50 ([1]; Table 6, data cell c7) is on record?
Its IC50 is 2.4 µM.

Which IC50 ([1]; Table 6, data cell c7) does the source give for COc1cccc(-n2sc3ccc(F)cc3c2=O)c1 [MIF-144] here?
Its IC50 is 2.75 µM.
